Measured values from patent US20070021509A1, “Phosphate transport inhibitors” (priority 2001, published 2007).
Like-named read-outs stand apart in the source and are kept apart here. One block for each compound: values may come before it.

Tested on: phosphate uptake by rabbit intestinal Brush Border Membrane Vesicles (BBMV)
Test: 33PO4 uptake in rabbit intestinal BBMV (HTS), phosphate transporter inhibition in vitro
Format: biochemical
Settings: for IC50: read-out: IC50; for % Inhib. At 100 μM: Table 3, 100 μM compound
Outline: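 BBMV from duodenal mucosa of male New Zealand White rabbits, diluted to about 0.5-2.0 mg/mL protein. Uptake buffers carried 33PO4 at 200,000 CPM/19 μL. Controls: Na uptake buffer (max), plus 100 μM KH2PO4 pH 7.4 (mid), K uptake buffer (min).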

Compound: O=C(NCc1ccc(F)cc1F)c1cc(Br)ccc1NS(=O)(=O)c1ccc(OC(F)(F)F)cc1 [Compound 64]
IC50 (Table 2, phosphate uptake): 51 to 100 µM

Compound: O=C(Nc1ccc(Br)cc1)c1cc(Br)cc(Br)c1O [Compound 253]
IC50 (Table 10, phosphate uptake): 101 to 500 µM

Compound: O=C(O)c1cc(Br)ccc1NS(=O)(=O)c1ccc(OC(F)(F)F)cc1 [Compound 2]
IC50 (Table 1, phosphate uptake): < 50 µM

Compound: O=C(Nc1ccc(Cl)c(Cl)c1)c1cc(Cl)cc(Cl)c1O [Compound 252]
IC50 (Table 10, phosphate uptake): 51 to 100 µM

Compound: O=C(O)c1cc(Br)ccc1NS(=O)(=O)c1ccc(I)cc1 [Compound 24]
IC50 (Table 1, phosphate uptake): 101 to 500 µM

Compound: O=C(O)c1cc(Br)ccc1NS(=O)(=O)c1ccc(Cl)cc1 [Compound 46]
IC50 (Table 1, phosphate uptake): > 1500 µM

Compound: CCOP(=O)(OCC)c1cc(Br)ccc1NC(=O)c1ccc(OC(F)(F)F)cc1 [Compound 250]
IC50 (Table 10, phosphate uptake): < 50 µM

Compound: O=S(=O)(Cc1c(F)cccc1Cl)c1ccc(Cl)cc1 [Compound 286]
% Inhib. at 100 μM (Table 12, 100 μM compound): 39%

Compound: O=S(=O)(Cc1ccc(C(F)(F)F)cc1)c1ccc(Cl)cc1 [Compound 291]
% Inhib. at 100 μM (Table 12, 100 μM compound): 0%

Compound: O=C(O)c1cc(Br)ccc1NS(=O)(=O)c1ccc(Cl)c([N+](=O)[O-])c1 [Compound 40]
IC50 (Table 1, phosphate uptake): > 1500 µM

Compound: O=S(=O)(Nc1cc(C(F)(F)F)c(Cl)cc1Cl)c1cc(C(F)(F)F)cc(C(F)(F)F)c1 [Compound 146]
% Inhib. At 100 μM: 62%

Compound: Cc1cc(C)c(S(=O)(=O)n2cc(/C=C/C(=O)O)c3ccccc32)c(C)c1 [Compound 144]
% Inhib. At 100 μM: 64%

Compound: O=C(Nc1cccc(F)c1)Nc1ccc(Br)cc1P(=O)(O)O [Compound 229]
% Inhib. at 100 μM (Table 5, 100 μM compound): 73%

Compound: CCOP(=O)(OCC)c1cc(Br)ccc1NC(=O)c1ccc(Br)cc1 [Compound 245]
% Inhib. at 100 μM (Table 8, 100 μM compound): 67%

Compound: O=S(=O)(Nc1c(F)cc(Br)cc1F)c1ccc(OC(F)(F)F)cc1 [Compound 151]
% Inhib. At 100 μM: 54%

Compound: O=C(O)c1cc(Br)ccc1NS(=O)(=O)c1ccc([N+](=O)[O-])cc1 [Compound 5]
IC50 (Table 1, phosphate uptake): 51 to 100 µM

Compound: O=S(=O)(Cc1ccc(Cl)cc1Cl)c1cc(C(F)(F)F)cc(C(F)(F)F)c1 [Compound 280]
% Inhib. at 100 μM (Table 12, 100 μM compound): 57%

Compound: Oc1ccc(C2=NOC(c3ccc(F)cc3)C2)cc1 (centres unmarked) [Compound 234]
% Inhib. at 100 μM (Table 6, 100 μM compound): 62%

Compound: O=S(=O)(NCc1ccc(F)cc1F)c1ccc(OC(F)(F)F)cc1 [Compound 153]
% Inhib. At 100 μM: 53%

Compound: O=S(=O)(c1ccc2ccccc2c1)N1CCc2ccccc21 [Compound 155]
% Inhib. At 100 μM: 51%

Compound: COc1ccc2c(c1)C(=O)CCN2S(=O)(=O)c1ccc(C)cc1 [Compound 165]
% Inhib. At 100 μM: 25%

Compound: O=C(O)c1cc(Br)ccc1NS(=O)(=O)c1ccccc1[N+](=O)[O-] [Compound 48]
IC50 (Table 1, phosphate uptake): > 1500 µM

Compound: Nc1cc(Br)ccc1NS(=O)(=O)c1ccc(OC(F)(F)F)cc1 [Compound 150]
% Inhib. At 100 μM: 57%

Compound: Cc1cccc(CNC(=O)c2cc(Br)ccc2NS(=O)(=O)c2ccc(OC(F)(F)F)cc2)c1 [Compound 58]
IC50 (Table 2, phosphate uptake): 51 to 100 µM

Compound: Cc1ccc(S(=O)(=O)Nc2ccc(Br)cc2C(=O)O)cc1[N+](=O)[O-] [Compound 9]
IC50 (Table 1, phosphate uptake): 51 to 100 µM

Compound: c1ccc(Oc2ccc(-c3cc(-c4ccco4)on3)cc2)cc1 [Compound 232]
% Inhib. at 100 μM (Table 6, 100 μM compound): 72%

Compound: O=C(NCc1cc(F)ccc1F)c1cc(Br)ccc1NS(=O)(=O)c1ccc(OC(F)(F)F)cc1 [Compound 66]
IC50 (Table 2, phosphate uptake): 51 to 100 µM

Compound: O=C(Nc1ccc(Br)cc1)c1cc(Br)cc(Br)c1O [Compound 251]
IC50 (Table 10, phosphate uptake): 51 to 100 µM

Compound: O=C(Nc1ccc(I)cc1F)c1cc(Br)ccc1NS(=O)(=O)c1ccc(OC(F)(F)F)cc1 [Compound 171]
% Inhib. At 100 μM: 100%

Compound: O=[N+]([O-])c1ccc(NS(=O)(=O)c2ccc(OC(F)(F)F)cc2)cc1 [Compound 156]
% Inhib. At 100 μM: 46%

Compound: O=C(O)c1cc(Br)ccc1NS(=O)(=O)c1ccc(OC(F)(F)F)cc1 [Compound 41]
IC50 (Table 1, phosphate uptake): > 1500 µM

Compound: O=C(NCc1ccc(Cl)c(Cl)c1)Nc1ccc(Br)cc1P(=O)([O-])[O-].[Na+].[Na+] [Compound 221]
% Inhib. at 100 μM (Table 5, 100 μM compound): 91%

Compound: O=c1sc2ccccc2n1S(=O)(=O)c1ccccc1 [Compound 148]
% Inhib. At 100 μM: 60%

Compound: CCOP(=O)(OCC)c1cc(Br)ccc1NC(=O)c1c(Cl)cc(Cl)cc1Cl [Compound 270]
IC50 (Table 10, phosphate uptake): > 1500 µM

Compound: O=S(=O)(Nc1ccccc1-n1cccc1)c1ccc(OC(F)(F)F)cc1 [Compound 134]
% Inhib. At 100 μM: 76%

Results, then the compound that gave them:

IC50 (Table 11, phosphate uptake): 501 to 1000 µM
Compound: O=C(/C=C/c1ccco1)c1cccc(Oc2ccccc2)c1 [Compound 276]

IC50 (Table 2, phosphate uptake): 101 to 500 µM
Compound: COc1ccccc1NC(=O)c1cc(Br)ccc1NS(=O)(=O)c1ccc(Cl)cc1 [Compound 89]

IC50 (Table 2, phosphate uptake): 101 to 500 µM
Compound: O=C(Nc1ccccc1Br)c1cc(Br)ccc1NS(=O)(=O)c1ccc(Cl)cc1 [Compound 90]

IC50 (Table 2, phosphate uptake): > 1500 µM
Compound: Cc1ccccc1NC(=O)c1cc(Br)ccc1NS(=O)(=O)c1ccc(Cl)c([N+](=O)[O-])c1 [Compound 121]

IC50 (Table 10, phosphate uptake): > 1500 µM
Compound: O=C(Nc1ccc(Br)cc1I)c1ccc(OC(F)(F)F)cc1 [Compound 271]

IC50 (Table 11, phosphate uptake): 501 to 1000 µM
Compound: COc1cccc(C(=O)/C=C/c2ccco2)c1 [Compound 275]

IC50 (Table 2, phosphate uptake): > 1500 µM
Compound: O=C(Nc1ccccc1F)c1cc(Br)ccc1NS(=O)(=O)c1ccc(Cl)c([N+](=O)[O-])c1 [Compound 124]

IC50 (Table 2, phosphate uptake): 101 to 500 µM
Compound: O=C(Nc1ccc(Oc2ccccc2)cc1)c1cc(Br)ccc1NS(=O)(=O)c1ccc(OC(F)(F)F)cc1 [Compound 74]

IC50 (Table 2, phosphate uptake): 101 to 500 µM
Compound: O=C(NC1CCCc2ccccc21)c1cc(Br)ccc1NS(=O)(=O)c1ccc(OC(F)(F)F)cc1 (centres unmarked) [Compound 76]

IC50 (Table 2, phosphate uptake): 51 to 100 µM
Compound: Cc1ccccc1CNC(=O)c1cc(Br)ccc1NS(=O)(=O)c1ccc(OC(F)(F)F)cc1 [Compound 67]

IC50 (Table 4, phosphate uptake): 101 to 500 µM
Compound: O=C(Nc1ccccc1-c1ccccc1)Nc1ccc(Br)cc1P(=O)(O)O [Compound 186]

IC50 (Table 7, phosphate uptake): > 1500 µM
Compound: Cn1nc(-c2ccc(O)cc2)cc1-c1ccco1 [Compound 242]

IC50 (Table 2, phosphate uptake): 51 to 100 µM
Compound: O=C(Nc1cc(Cl)ccc1Cl)c1cc(Br)ccc1NS(=O)(=O)c1ccc(Cl)cc1 [Compound 87]

IC50 (Table 2, phosphate uptake): 51 to 100 µM
Compound: COc1ccc(S(=O)(=O)Nc2ccc(Br)cc2C(=O)Nc2cc(Cl)ccc2Cl)cc1[N+](=O)[O-] [Compound 98]

IC50 (Table 2, phosphate uptake): 501 to 1000 µM
Compound: Cc1ccc(CNC(=O)c2cc(Br)ccc2NS(=O)(=O)c2ccc(OC(F)(F)F)cc2)cc1 [Compound 82]

IC50 (Table 2, phosphate uptake): > 1500 µM
Compound: O=C(c1ccc(Cl)cc1)c1cc(NC(=O)c2cc(Br)ccc2NS(=O)(=O)c2ccc(Cl)cc2)ccc1Cl [Compound 96]

IC50 (Table 2, phosphate uptake): 101 to 500 µM
Compound: O=C(Nc1ccc(Cl)cc1Cl)c1cc(Br)ccc1NS(=O)(=O)c1ccc(OC(F)(F)F)cc1 [Compound 79]

IC50 (Table 2, phosphate uptake): < 50 µM
Compound: O=C(Nc1cc(Cl)ccc1Cl)c1cc(Br)ccc1NS(=O)(=O)c1ccc(Cl)c([N+](=O)[O-])c1 [Compound 112]

IC50 (Table 10, phosphate uptake): 101 to 500 µM
Compound: O=C(Nc1ccc(Oc2ccc(Cl)c3ccccc23)c(Cl)c1)c1cc(Cl)cc(Cl)c1O [Compound 258]

IC50 (Table 2, phosphate uptake): < 50 µM
Compound: O=C(Nc1cc(Cl)ccc1Cl)c1cc(Br)ccc1NS(=O)(=O)c1ccc(Cl)c([N+](=O)[O-])c1 [Compound 111]

IC50 (Table 2, phosphate uptake): 101 to 500 µM
Compound: O=C(Nc1ccc(-c2ccccc2)cc1)c1cc(Br)ccc1NS(=O)(=O)c1ccc(OC(F)(F)F)cc1 [Compound 73]

IC50 (Table 2, phosphate uptake): > 1500 µM
Compound: O=C(Nc1cccc(Br)c1)c1cc(Br)ccc1NS(=O)(=O)c1ccc(Cl)cc1 [Compound 91]

IC50 (Table 7, phosphate uptake): > 1500 µM
Compound: Cn1nc(-c2ccc(Oc3ccccc3)cc2)cc1-c1cccc(F)c1 [Compound 243]

IC50 (Table 4, phosphate uptake): 501 to 1000 µM
Compound: O=C(Nc1ccccc1F)Nc1ccc(Br)cc1P(=O)(O)O [Compound 200]

IC50 (Table 2, phosphate uptake): 101 to 500 µM
Compound: COc1ccc(S(=O)(=O)Nc2ccc(Br)cc2C(=O)Nc2ccccc2C(=O)O)cc1[N+](=O)[O-] [Compound 107]

IC50 (Table 4, phosphate uptake): 101 to 500 µM
Compound: O=C(Nc1ccc(F)c([N+](=O)[O-])c1)Nc1ccc(Br)cc1P(=O)(O)O [Compound 194]

IC50 (Table 4, phosphate uptake): 101 to 500 µM
Compound: O=C(Nc1cc(C(F)(F)F)ccc1F)Nc1ccc(Br)cc1P(=O)(O)O [Compound 189]

IC50 (Table 2, phosphate uptake): 101 to 500 µM
Compound: O=C(Nc1cccc(Br)c1)c1cc(Br)ccc1NS(=O)(=O)c1ccc(OC(F)(F)F)cc1 [Compound 72]

IC50 (Table 4, phosphate uptake): 501 to 1000 µM
Compound: Cc1cccc(C)c1NC(=O)Nc1ccc(Br)cc1P(=O)(O)O [Compound 196]

IC50 (Table 4, phosphate uptake): 51 to 100 µM
Compound: O=C(Nc1cc(Cl)cc(Cl)c1)Nc1ccc(Br)cc1P(=O)(O)O [Compound 180]

IC50 (Table 4, phosphate uptake): 501 to 1000 µM
Compound: COc1cccc(NC(=O)Nc2ccc(Br)cc2P(=O)(O)O)c1 [Compound 203]

IC50 (Table 13, phosphate uptake): 51 to 100 µM
Compound: O=S(=O)(O)c1cc(NS(=O)(=O)c2ccc(-c3ccccc3)cc2)ccc1/C=C/c1ccc(NS(=O)(=O)c2ccc(-c3ccccc3)cc2)cc1S(=O)(=O)O [Compound 293]

IC50 (Table 2, phosphate uptake): 101 to 500 µM
Compound: O=C(NCc1ccccc1F)c1cc(Br)ccc1NS(=O)(=O)c1ccc(OC(F)(F)F)cc1 [Compound 70]
